Experimental data reported in patent US20040109897A1, “Free flowing solid antimicrobial composition” (priority 2002, published 2004).

Tests used:
[1] = Flowability of OPA after one hour on high-speed rollers; assay type: physicochemical; settings: granular OPA in capped 100 ml jar, no additive
Description: Ortho-phthalic aldehyde (13.04 g, granular) was placed in a 100 ml jar. The jar was tightly capped and placed on high-speed rollers for one hour. […] The lid was removed and the sample was placed in a humidity oven set at 40° C. and 90% RH (relative humidity). After 4 hours of exposure the sample had no flow.
Ortho-phthalic aldehyde (10.04 g, granular) was placed in a 100 ml jar. The jar was tightly capped and placed on high-speed rollers for one hour. […] The lid was removed and the sample was placed in a humidity oven set at 30° C. and 90% RH (relative humidity).
Ortho-phthalic addehyde (12.04 g, granular) was placed in a 100 ml jar. The jar was tightly capped and placed on high-speed rollers for one hour. […] The lid was removed and the sample was placed in a humidity oven set at 40° C. and 70% RH (relative humidity).

[2] = Free flow preservation (caking) of OPA formulations on exposure to temperature and humidity; assay type: physicochemical; settings: for Caking tendency: 0 wt. % of anti-caking agent; for Time to caking: untreated
Text: Samples of OPA containing 0.01-0.1% water were ground and mixed with various additives at levels of 0.2% to 5%. The samples were mixed on high-speed rollers for one hour followed by exposure to various temperatures and levels of humidity. The samples were examined at various time intervals for flow properties. Complete caking was defined as all sample stuck together in one solid block. For ease of interpretation and comparison, the following notation was used: 1) Formulations that caked in under two weeks were assigned one star (*); 2). Formulations that caked in two to four weeks were assigned two stars; 3) Formulations that caked in four to eight weeks were assigned three stars; 4) Formulations stable (flowable) over eight weeks were assigned four stars.

Flowability after one hour on high-speed rollers [1]: very poor flowability | Time to caking ([2]; 30° C. and 90% RH): one day | Time to caking ([2]; 40° C. and 90% RH): half a day | Flow after exposure ([2]; 4 hours at 40° C. and 70% RH): no free flow | Flow after exposure ([2]; 4 hours at 40° C. and 90% RH): no flow | Flow after exposure ([2]; 24 hours at 30° C. and 90% RH): no free flow
SMILES: O=Cc1ccccc1C=O [Control, ortho-phthalic aldehyde]
Caking tendency ([2]; 22.5° C. and 65% RH): * (Formulations that caked in under two weeks were assigned one star (*)) | Caking tendency ([2]; 30° C. and 90% RH): * (Formulations that caked in under two weeks were assigned one star (*)) | Caking tendency ([2]; 40° C. and 70% RH): * (Formulations that caked in under two weeks were assigned one star (*)) | Caking tendency ([2]; 40° C. and 90% RH): * (Formulations that caked in under two weeks were assigned one star (*))
